In publication PMC4865847, “Putative histidine kinase inhibitors with antibacterial effect against multi-drug resistant clinical isolates identified by in vitro and in silico screens” (Scientific Reports, 2016):
Values after ≈ are worked out from the molar mass of the structure shown. Read-outs that look alike come from different tables or passages of the source.

Legend:
Pseudomonas aeruginosa = assay: Antibacterial susceptibility testing (MIC), P. aeruginosa; type: cell-based; details: Pseudomonas aeruginosa, ATCC27853; strain ATCC 27853
Experimental: (§1) Bacterial strains used in this study for antibacterial susceptibility testing (Table S5) were propagated using standard microbiological procedures. Minimal inhibitory concentrations (MICs) were determined following a standard double-dilution method. MICs were recorded as the lowest concentration of the compound where no visible growth was observed. After plating the dilutions around the MIC or growing them in fresh MH media, minimal bactericidal concentration (MBC) was recorded as the lowest concentration of the compound at which no colonies were formed or no growth was observed, respectively. For S. pneumoniae MICs were determined by adapting the standard double-dilution method to anaerobic conditions and of this microorganism (use of Todd Hewitt Yeast extract with 200 U/mL of catalase and continuous monitoring of growth).

Klebsiella pneumoniae = assay: Antibacterial susceptibility testing (MIC), K. pneumoniae; type: cell-based; details: for MIC: Klebsiella pneumoniae, ATCC700603, strain ATCC 700603
Experimental: as §1

Escherichia coli = assay: Antibacterial susceptibility testing (MIC/MBC), E. coli; type: cell-based
Experimental: (§2) Minimal inhibitory concentrations (MICs) were determined following a standard double-dilution method. […] For S. pneumoniae MICs were determined by adapting the standard double-dilution method to anaerobic conditions and of this microorganism (use of Todd Hewitt Yeast extract with 200 U/mL of catalase and continuous monitoring of growth).

[1] = tested on: Staphylococcus epidermidis; assay: Antibacterial susceptibility testing (MIC/MBC), S. epidermidis; type: cell-based; details: Staphylococcus epidermidis; for MBC: DSM20044, strain DSM 20044
Experimental: as §2

[2] = tested on: Stenotrophomonas maltophilia; assay: Antibacterial susceptibility testing (MIC), S. maltophilia; type: cell-based; details: clinical isolate B32/1, read-out: MIC S. maltophilia B32/1
Experimental: as §1

Streptococcus pneumoniae = assay: Antibacterial susceptibility testing (MIC), S. pneumoniae; type: cell-based; details: strain 49619
Experimental: as §1

Streptococcus suis = assay: Antibacterial susceptibility testing (MIC), S. suis; type: cell-based; details: Streptococcus suis, read-out: MIC Streptococcus suis 3881/S10, strain 3881/S10
Experimental: as §1

E. coli PhoR (PhoR^E) = target: T1, E. coli PhoR (PhoR^E) (Escherichia coli, UniProt P08400); assay: In vitro autophosphorylation kinase assay with γ-32P-ATP, PhoR^E; type: biochemical; details: for IC50: autophosphorylation, one time point (30 sec), 10% DMSO, read-out: IC50 PhoR^E
T1 construct: The catalytic portion (DHp and CA domain) of E. coli PhoR (PhoR^E); made in house; host or cells: E. coli RIL
T1 sequence (P08400 210-425): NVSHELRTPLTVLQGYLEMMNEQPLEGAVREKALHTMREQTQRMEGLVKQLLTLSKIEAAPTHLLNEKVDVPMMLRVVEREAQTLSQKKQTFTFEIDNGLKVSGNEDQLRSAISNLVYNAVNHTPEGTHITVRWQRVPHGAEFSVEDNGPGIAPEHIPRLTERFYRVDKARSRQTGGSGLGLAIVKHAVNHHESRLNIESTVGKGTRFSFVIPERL
How it was run: (§3)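 Autophosphorylation, initiated with γ-32P-ATP (0.1 μCi/μl; 0.03–0.06 μM ATP final), quenched with SDS/EDTA sample buffer, resolved by SDS-PAGE and quantified by phosphor-imaging. ≈4 μM kinase, fragments up to 20 mM, pH 8.5 Tris buffer with Mg2+; DMSO-matched ligand-free controls.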

Hemolysis assay = type: cell-based; details: human
Experimental: Hemolytic activity against human erythrocytes taken from a healthy donor was measured as previously described. The hemolysis experiments were carried out in accordance with the guidelines of the United Arab Emirates University (UAEU) Research Ethics Review Board. All experimental protocols were approved by the Research Ethics Review Board of UAEU and informed consent was obtained from all donors.

Staphylococcus aureus = assay: Antibacterial susceptibility testing (MIC/MBC), S. aureus; type: cell-based; details: Staphylococcus aureus; for MBC: DSM20231, strain DSM 20231, read-out: MBC S. aureus DSM 20231
Experimental: as §2

S. pneumoniae WalK = target: T2, S. pneumoniae WalK (Streptococcus pneumoniae, UniProt Q8DPL8); assay: In vitro autophosphorylation kinase assay with γ-32P-ATP, WalK; type: biochemical; details: for IC50: autophosphorylation, one time point (30 sec), 10% DMSO, read-out: IC50 WalK
T2 construct: WalK (amino acids from 208 to 449); N-terminal His6-3C site of vector pOPINF (own knowledge of the vector); made in house; host or cells: E. coli RIL
T2 sequence (Q8DPL8 208-449): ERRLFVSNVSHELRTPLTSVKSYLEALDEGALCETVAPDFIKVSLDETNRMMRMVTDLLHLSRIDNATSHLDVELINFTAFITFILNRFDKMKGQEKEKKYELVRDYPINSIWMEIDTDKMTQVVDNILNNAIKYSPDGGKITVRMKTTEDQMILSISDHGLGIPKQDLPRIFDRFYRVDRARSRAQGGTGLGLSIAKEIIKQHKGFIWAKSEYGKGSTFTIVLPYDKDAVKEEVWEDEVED
How it was run: as §3

Acinetobacter baumannii = assay: Antibacterial susceptibility testing (MIC), A. baumannii; type: cell-based
Experimental: as §1

[3] = Solubility in kinase buffer; type: physicochemical; details: kinase buffer with 10% DMSO, pH 8.5, aqueous with cosolvent or surfactant or cyclodextrin, kinetic from dmso stock; kinase buffer in the presence of 10% DMSO; read-out: concentration above which not soluble / reduced solubility in kinase buffer
[4] = Escherichia coli, ATCC25276, strain ATCC 25276, read-out: MIC E. coli ATCC 25276
[5] = Escherichia coli, strain CFT 073, read-out: MIC E. coli CFT 073
[6] = clinical isolate T7/3, read-out: MIC S. epidermidis T7/3
[7] = clinical isolate T37/8, read-out: MIC S. epidermidis T37/8
[8] = clinical isolate T6119, read-out: MIC S. epidermidis T6119
[9] = strain RP62A (biofilm producer), read-out: MIC S. epidermidis RP62A
[10] = strain RP62A/1 (non-biofilm producer), read-out: MIC S. epidermidis RP62A/1
[11] = ATCC reference strain 25293, read-out: MIC S. aureus 25293
[12] = MRSA clinical isolate 127/08, read-out: MIC S. aureus 127/08
[13] = MRSA clinical isolate 145/08, read-out: MIC S. aureus 145/08
[14] = MRSA clinical isolate 274/08, read-out: MIC S. aureus 274/08
[15] = MRSA, MRSA clinical isolate S908, read-out: MIC S. aureus S908
[16] = MRSA, MRSA clinical isolate T4/6, read-out: MIC S. aureus T4/6
[17] = MRSA, MRSA clinical isolate V4180, read-out: MIC S. aureus V4180
[18] = 2 mM, 30 sec, compared to negative control
[19] = MDR clinical isolate NM8, read-out: MIC A. baumannii NM8

## Nc1nc(-c2ccccc2Cl)cs1 [F1.6]
Pseudomonas aeruginosa
  MIC: > 500 µg/mL
Klebsiella pneumoniae
  MIC: > 500 µg/mL
Escherichia coli; [4]
  MIC: > 500 µg/mL
Escherichia coli; [5]
  MIC: > 500 µg/mL
[1]
  MBC: 500 µg/mL (≈ 2370 µM)
[1]; [6]
  MIC: 125 µg/mL (≈ 593 µM)
[1]; [7]
  MIC: > 500 µg/mL
[1]; [8]
  MIC: > 500 µg/mL
[1]; [9]
  MIC: > 500 µg/mL
[1]; [10]
  MIC: > 500 µg/mL
[1]; summary over clinical isolates, read-out: MICs for S. epidermidis clinical isolates
  MIC: 125 µg/mL (≈ 593 µM)
[2]
  MIC: > 500 µg/mL
Streptococcus pneumoniae
  MIC: 256 µg/mL (≈ 1220 µM)
Streptococcus suis
  MIC: > 500 µg/mL
E. coli PhoR (PhoR^E)
  IC50: > 2000 µM
Hemolysis assay
  HC50: > 500 µg/mL
Staphylococcus aureus; [11]
  MIC: 250 µg/mL (≈ 1190 µM)
Staphylococcus aureus
  MBC: 250 µg/mL (≈ 1190 µM)
Staphylococcus aureus; [12]
  MIC: 250 µg/mL (≈ 1190 µM)
Staphylococcus aureus; [13]
  MIC: 250 µg/mL (≈ 1190 µM)
Staphylococcus aureus; [14]
  MIC: 500 µg/mL (≈ 2370 µM)
Staphylococcus aureus; [15]
  MIC: 500 µg/mL (≈ 2370 µM)
Staphylococcus aureus; [16]
  MIC: 250 µg/mL (≈ 1190 µM)
Staphylococcus aureus; [17]
  MIC: > 500 µg/mL
Staphylococcus aureus; MRSA, summary over strains, read-out: MICs for the MRSA strains and S. aureus 25293
  MIC: 125 to 500 µg/mL (≈ 593 to 2370 µM)
S. pneumoniae WalK; [18]
  inhibition at 2000 µM: > 50%
S. pneumoniae WalK
  IC50: < 2000 µM
Acinetobacter baumannii; [19]
  MIC: > 500 µg/mL

## Nc1nccc(Nc2ccc(Br)cc2)n1 [F1.8]
Pseudomonas aeruginosa
  MIC: 500 µg/mL (≈ 1890 µM)
Klebsiella pneumoniae
  MIC: 125 to 250 µg/mL (≈ 471 to 943 µM)
Klebsiella pneumoniae; strain ATCC 700603
  MIC K. pneumoniae ATCC700603: 250 µg/mL (≈ 943 µM)
Escherichia coli; [4]
  MIC: 125 to 250 µg/mL (≈ 471 to 943 µM)
Escherichia coli; Escherichia coli, strain CFT 073, read-out: MBC E. coli CFT 073
  MBC: 500 µg/mL (≈ 1890 µM)
Escherichia coli; [5]
  MIC: < 250 µg/mL
Escherichia coli; Escherichia coli, summary over E. coli strains, read-out: antibacterial effects (MIC) against E. coli
  MIC: ≥ 250 µg/mL
Escherichia coli; strain ATCC 25276
  MIC E. coli ATCC 25276: 250 µg/mL (≈ 943 µM)
Escherichia coli; strain CFT 073
  MIC E. coli CFT 073: 250 µg/mL (≈ 943 µM)
[1]
  MBC: 125 µg/mL (≈ 471 µM)
[1]; [6]
  MIC: 31 µg/mL (≈ 117 µM)
[1]; [7]
  MIC: 500 µg/mL (≈ 1890 µM)
[1]; [8]
  MIC: 250 µg/mL (≈ 943 µM)
[1]; [9]
  MIC: 500 µg/mL (≈ 1890 µM)
[1]; [10]
  MIC: 250 µg/mL (≈ 943 µM)
[1]; summary over strains, read-out: MICs for the S. epidermidis strains
  MIC: 31 to 500 µg/mL (≈ 117 to 1890 µM)
[2]
  MIC: > 500 µg/mL
Streptococcus pneumoniae
  MIC: 128 µg/mL (≈ 483 µM)
Streptococcus suis
  MIC: 250 µg/mL (≈ 943 µM)
E. coli PhoR (PhoR^E); [18]
  inhibition at 2000 µM: > 50%
E. coli PhoR (PhoR^E)
  IC50: ≤ 1000 µM
Hemolysis assay
  HC50: > 500 µg/mL
Staphylococcus aureus; [11]
  MIC: 250 µg/mL (≈ 943 µM)
Staphylococcus aureus
  MBC: 250 µg/mL (≈ 943 µM)
Staphylococcus aureus; [12]
  MIC: 250 µg/mL (≈ 943 µM)
Staphylococcus aureus; [13]
  MIC: 250 µg/mL (≈ 943 µM)
Staphylococcus aureus; [14]
  MIC: 250 µg/mL (≈ 943 µM)
Staphylococcus aureus; [15]
  MIC: 250 µg/mL (≈ 943 µM)
Staphylococcus aureus; [16]
  MIC: 250 µg/mL (≈ 943 µM)
Staphylococcus aureus; [17]
  MIC: 250 µg/mL (≈ 943 µM)
Staphylococcus aureus; MRSA, summary over strains, read-out: MICs for the S. aureus reference strains and the MRSA strains
  MIC: 125 to 250 µg/mL (≈ 471 to 943 µM)
S. pneumoniae WalK
  IC50: > 2000 µM
Acinetobacter baumannii; [19]
  MIC: 125 µg/mL (≈ 471 µM)
Acinetobacter baumannii; MDR clinical isolate NM35, read-out: MIC A. baumannii NM35
  MIC: 125 µg/mL (≈ 471 µM)
Acinetobacter baumannii; MDR clinical isolate NM75, read-out: MIC A. baumannii NM75
  MIC: 250 µg/mL (≈ 943 µM)
Acinetobacter baumannii; MDR clinical isolate NM109, read-out: MIC A. baumannii NM109
  MIC: 125 µg/mL (≈ 471 µM)
Acinetobacter baumannii; MDR clinical isolate NM124, read-out: MIC A. baumannii NM124
  MIC: 125 µg/mL (≈ 471 µM)
Acinetobacter baumannii; summary over strains, read-out: MICs for A. baumannii strains
  MIC: 125 to 250 µg/mL (≈ 471 to 943 µM)
[3]
  solubility: ≤ 1000 µM
